The test deals with T1, mushroom tyrosinase (Agaricus bisporus, UniProt C7FF04).
T1 construct: gene PPO3
Nature of the test: dopachrome formation at […] nm, % inhibition at […]. The conditions noted are these: read-out: 50μM / Mean ± SD (%). The class given is biochemical.

Structures are written as SMILES.

T1 sequence (C7FF04 2-392): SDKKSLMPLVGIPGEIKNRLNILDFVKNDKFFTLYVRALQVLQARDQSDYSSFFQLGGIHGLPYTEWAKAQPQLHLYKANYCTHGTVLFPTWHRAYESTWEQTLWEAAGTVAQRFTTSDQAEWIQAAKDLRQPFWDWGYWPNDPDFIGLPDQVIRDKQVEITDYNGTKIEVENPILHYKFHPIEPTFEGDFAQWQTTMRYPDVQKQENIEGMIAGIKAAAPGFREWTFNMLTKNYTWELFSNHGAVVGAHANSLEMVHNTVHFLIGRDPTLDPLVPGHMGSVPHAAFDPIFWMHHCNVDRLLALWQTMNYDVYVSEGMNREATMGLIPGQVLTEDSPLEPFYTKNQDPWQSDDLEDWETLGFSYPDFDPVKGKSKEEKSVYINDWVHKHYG

On to `COc1ccc(/C=C2\CSc3ccccc3C2=O)cc1O` [d], for which the inhibition at 50 µM is 91.5 ± 6.2%.
The figure for `O=C1/C(=C/c2ccc(O)cc2)CSc2ccccc21` [a] is 81.6 ± 1%.

The record behind these values is article PMC6321646, “Evaluation of the Novel Synthetic Tyrosinase Inhibitor (Z)-3-(3-bromo-4-hydroxybenzylidene)thiochroman-4-one (MHY1498) In Vitro and In Silico” (Molecules, 2018).
